Assay results published in US20250074891A1 (Anaxis Pharma Pty Ltd., priority 2021, published 2025).

Experiments:
Details in all cases: Table 35
[1] = target: RIP3 (Homo sapiens (Human), UniProt Q9Y572); assay: KINOMEscan binding assay, RIP3
Experimental: (§1) Kinase assays. For most assays, kinase-tagged T7 phage strains were grown in parallel in 24-well blocks in an E. coli host derived from the BL21 strain. E. coli were grown to log-phase and infected with T7 phage from a frozen stock (multiplicity of infection=0.4) and incubated with shaking at 32° C. until lysis (90-150 minutes).
(§2) The Hill Slope was set to −1.

[2] = target: RIP1 (Homo sapiens (Human), UniProt Q13546); assay: KINOMEscan binding assay, RIP1
[3] = target: MLKL (full length) (Homo sapiens (Human), UniProt Q8NB16); assay: KINOMEscan binding assay, MLKL (full length)
Experimental: as §1, §2

Chain of RIP1 (Q13546 whole entry): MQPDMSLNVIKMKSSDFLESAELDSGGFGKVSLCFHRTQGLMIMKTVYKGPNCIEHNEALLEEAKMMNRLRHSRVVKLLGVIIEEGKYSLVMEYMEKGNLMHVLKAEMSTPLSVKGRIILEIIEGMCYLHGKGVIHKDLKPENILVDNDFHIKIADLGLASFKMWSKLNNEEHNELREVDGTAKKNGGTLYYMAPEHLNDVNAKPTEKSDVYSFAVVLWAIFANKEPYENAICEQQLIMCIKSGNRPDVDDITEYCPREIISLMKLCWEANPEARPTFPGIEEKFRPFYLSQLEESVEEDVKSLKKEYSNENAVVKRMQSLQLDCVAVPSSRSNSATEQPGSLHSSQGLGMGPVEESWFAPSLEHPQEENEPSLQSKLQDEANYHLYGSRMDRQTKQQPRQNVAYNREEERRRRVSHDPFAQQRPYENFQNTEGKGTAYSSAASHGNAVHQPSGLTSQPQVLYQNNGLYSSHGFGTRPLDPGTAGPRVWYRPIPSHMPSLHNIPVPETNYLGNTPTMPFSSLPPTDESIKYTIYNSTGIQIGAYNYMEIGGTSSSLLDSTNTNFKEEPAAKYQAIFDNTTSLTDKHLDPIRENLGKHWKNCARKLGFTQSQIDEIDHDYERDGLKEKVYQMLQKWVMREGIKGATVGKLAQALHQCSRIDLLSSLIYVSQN
Chain of MLKL (full length) (Q8NB16 whole entry): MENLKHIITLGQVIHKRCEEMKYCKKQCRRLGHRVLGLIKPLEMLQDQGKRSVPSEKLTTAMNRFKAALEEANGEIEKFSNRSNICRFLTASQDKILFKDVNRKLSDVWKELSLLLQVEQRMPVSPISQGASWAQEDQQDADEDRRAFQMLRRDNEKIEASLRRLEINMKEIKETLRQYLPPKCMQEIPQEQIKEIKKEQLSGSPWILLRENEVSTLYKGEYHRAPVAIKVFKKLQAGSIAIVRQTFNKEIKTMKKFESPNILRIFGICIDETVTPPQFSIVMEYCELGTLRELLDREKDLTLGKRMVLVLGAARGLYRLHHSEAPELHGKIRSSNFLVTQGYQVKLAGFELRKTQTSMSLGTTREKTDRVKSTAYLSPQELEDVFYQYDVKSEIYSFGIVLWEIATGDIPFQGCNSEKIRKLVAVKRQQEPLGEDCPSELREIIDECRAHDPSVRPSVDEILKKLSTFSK
Chain of RIP3 (Q9Y572 whole entry): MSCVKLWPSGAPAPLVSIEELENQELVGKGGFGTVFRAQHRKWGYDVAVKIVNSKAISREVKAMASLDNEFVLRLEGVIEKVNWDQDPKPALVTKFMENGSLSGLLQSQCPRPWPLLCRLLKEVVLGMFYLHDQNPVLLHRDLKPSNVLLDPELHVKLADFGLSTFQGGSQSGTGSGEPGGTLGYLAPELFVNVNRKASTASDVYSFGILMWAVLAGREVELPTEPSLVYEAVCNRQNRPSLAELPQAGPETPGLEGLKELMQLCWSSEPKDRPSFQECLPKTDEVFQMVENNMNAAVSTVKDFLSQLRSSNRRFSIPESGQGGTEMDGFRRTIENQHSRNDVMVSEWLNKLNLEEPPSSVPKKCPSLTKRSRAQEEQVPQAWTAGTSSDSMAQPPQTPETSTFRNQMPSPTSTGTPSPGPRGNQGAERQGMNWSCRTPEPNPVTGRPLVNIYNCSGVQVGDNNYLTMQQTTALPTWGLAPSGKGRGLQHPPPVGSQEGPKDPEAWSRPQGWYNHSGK

Row | Structure (SMILES) | Kd [1] [µM] | Kd [2] [µM] | Kd [3] [µM]
1 | C[C@H](Oc1cc(-c2n[nH]c(Nc3cc(C4CCOCC4)ccn3)c2C(N)=O)ccc1NS(=O)(=O)C(F)F)c1ccc(F)cc1 [Compound 287, (S)-3-(4-((difluoromethyl)sulfonamido)-3-(1-(4-fluorophenyl)ethoxy)phenyl)-5-((4-(tetrahydro-2H-pyran-4-yl)pyridin-2-yl)amino)-1H-pyrazole-4-carboxamide] | > 30 | > 30 | < 0.01
2 | COCC(C)(C)c1cc(Nc2[nH]nc(-c3ccc(NS(=O)(=O)C(F)F)c(O[C@@H](C)c4ccc(F)cc4)c3)c2C(N)=O)no1 [Compound 288, (S)-3-(4-((difluoromethyl)sulfonamido)-3-(1-(4-fluorophenyl)ethoxy)phenyl)-5-((5-(1-methoxy-2-methylpropan-2-yl)isoxazol-3-yl)amino)-1H-pyrazole-4-carboxamide] | > 30 | > 30 | < 0.01
3 | C[C@H](Oc1cc(-c2n[nH]c(Nc3cc(C4(C(F)(F)F)CC4)on3)c2C(N)=O)ccc1NS(=O)(=O)C(F)F)c1ccc(F)cc1 [Compound 289, (S)-3-(4-((difluoromethyl)sulfonamido)-3-(1-(4-fluorophenyl)ethoxy)phenyl)-5-((5-(1-(trifluoromethyl)cyclopropyl)isoxazol-3-yl)amino)-1H-pyrazole-4-carboxamide] | > 30 | > 30 | < 0.01
4 | Cc1cnc(Nc2[nH]nc(-c3ccc(NS(=O)(=O)C(F)F)c(OC4(c5ccc(F)cc5)CC4)c3)c2C(N)=O)cn1 [Compound 290, 3-(4-((difluoromethyl)sulfonamido)-3-(1-(4-fluorophenyl)cyclopropoxy)phenyl)-5-((5-methylpyrazin-2-yl)amino)-1H-pyrazole-4-carboxamide] | > 30 | > 30 | < 0.01
5 | C[C@H](Oc1cc(-c2n[nH]c(Nc3cc(C4(C)COC4)on3)c2C(N)=O)ccc1NS(=O)(=O)C(F)F)c1ccc(F)cc1 [Compound 292, (S)-3-(4-((difluoromethyl)sulfonamido)-3-(1-(4-fluorophenyl)ethoxy)phenyl)-5-((5-(3-methyloxetan-3-yl)isoxazol-3-yl)amino)-1H-pyrazole-4-carboxamide] | > 30 | > 30 | < 0.01
6 | COc1cc(Nc2[nH]nc(-c3ccc(NS(=O)(=O)C(F)F)c(O[C@@H](C)c4ccc(F)cc4)c3)c2C(N)=O)nn1C [Compound 294, (S)-3-(4-((difluoromethyl)sulfonamido)-3-(1-(4-fluorophenyl)ethoxy)phenyl)-5-((5-methoxy-1-methyl-1H-pyrazol-3-yl)amino)-1H-pyrazole-4-carboxamide] | > 30 | > 30 | < 0.01
7 | C[C@H](Oc1cc(-c2n[nH]c(Nc3cc(C(C)(C)C)no3)c2C(N)=O)ccc1NS(=O)(=O)C(F)F)c1ccc(F)cc1 [Compound 295, (S)-5-((3-(tert-butyl)isoxazol-5-yl)amino)-3-(4-((difluoromethyl)sulfonamido)-3-(1-(4-fluorophenyl)ethoxy)phenyl)-1H-pyrazole-4-carboxamide] | > 30 | > 30 | < 0.01
8 | C[C@H](Oc1cc(-c2n[nH]c(Nc3cnc(C4CCOCC4)cn3)c2C(N)=O)ccc1NS(=O)(=O)C(F)F)c1ccc(F)cc1 [Compound 296, (S)-3-(4-((difluoromethyl)sulfonamido)-3-(1-(4-fluorophenyl)ethoxy)phenyl)-5-((5-(tetrahydro-2H-pyran-4-yl)pyrazin-2-yl)amino)-1H-pyrazole-4-carboxamide] | > 30 | > 30 | < 0.01
9 | C[C@H](Oc1cc(-c2n[nH]c(Nc3cc(C(C)(C)F)on3)c2C(N)=O)ccc1NS(=O)(=O)C(F)F)c1ccc(F)cc1 [Compound 297, (S)-3-(4-((difluoromethyl)sulfonamido)-3-(1-(4-fluorophenyl)ethoxy)phenyl)-5-((5-(2-fluoropropan-2-yl)isoxazol-3-yl)amino)-1H-pyrazole-4-carboxamide] | > 30 | > 30 | < 0.01
10 | COC[C@@H](Oc1cc(-c2n[nH]c(Nc3cc(C)on3)c2C(N)=O)ccc1NS(=O)(=O)C(F)F)c1ccc(F)cc1 [Compound 300, (S)-3-(4-((difluoromethyl)sulfonamido)-3-(1-(4-fluorophenyl)-2-methoxyethoxy)phenyl)-5-((5-methylisoxazol-3-yl)amino)-1H-pyrazole-4-carboxamide] | > 30 | > 30 | < 0.01
11 | Cc1cc(Nc2[nH]nc(-c3ccc(NS(=O)(=O)C(F)F)c(O[C@@H](C)c4ccc(F)cc4)c3)c2C(N)=O)on1 [Compound 302, (S)-3-(4-((difluoromethyl)sulfonamido)-3-(1-(4-fluorophenyl)ethoxy)phenyl)-5-((3-methylisoxazol-5-yl)amino)-1H-pyrazole-4-carboxamide] | > 30 | > 30 | < 0.01
12 | C[C@H](Oc1cc(-c2n[nH]c(Nc3cc(C4CCOCC4)on3)c2C(N)=O)ccc1NS(=O)(=O)C(F)F)c1ccc(F)cc1 [Compound 303, (S)-3-(4-((difluoromethyl)sulfonamido)-3-(1-(4-fluorophenyl)ethoxy)phenyl)-5-((5-(tetrahydro-2H-pyran-4-yl)isoxazol-3-yl)amino)-1H-pyrazole-4-carboxamide] | > 30 | > 30 | < 0.01
13 | C[C@H](Oc1cc(-c2n[nH]c(Nc3cc(C4CCOC4)on3)c2C(N)=O)ccc1NS(=O)(=O)C(F)F)c1ccc(F)cc1 (stereo partly drawn) [Compound 305, 3-(4-((difluoromethyl)sulfonamido)-3-((S)-1-(4-fluorophenyl)ethoxy)phenyl)-5-((5-(tetrahydrofuran-3-yl)isoxazol-3-yl)amino)-1H-pyrazole-4-carboxamide] | > 30 | > 30 | < 0.01
14 | C[C@H](Oc1cc(-c2n[nH]c(Nc3cnn(C4CCOCC4)c3)c2C(N)=O)ccc1NS(=O)(=O)C(F)F)c1ccc(F)cc1 [Compound 306, (S)-3-(4-((difluoromethyl)sulfonamido)-3-(1-(4-fluorophenyl)ethoxy)phenyl)-5-((1-(tetrahydro-2H-pyran-4-yl)-1H-pyrazol-4-yl)amino)-1H-pyrazole-4-carboxamide] | > 30 | > 30 | < 0.01
15 | NC(=O)c1c(-c2ccc(NS(=O)(=O)C(F)F)c(OC3(c4ccc(F)cc4)CC3)c2)n[nH]c1Nc1cnccn1 [Compound 307, 3-(4-((difluoromethyl)sulfonamido)-3-(1-(4-fluorophenyl)cyclopropoxy)phenyl)-5-(pyrazin-2-ylamino)-1H-pyrazole-4-carboxamide] | > 30 | > 30 | < 0.01
16 | C[C@H](Oc1cc(-c2n[nH]c(Nc3cc4n(n3)CCOC4)c2C(N)=O)ccc1NS(=O)(=O)C(F)F)c1ccc(F)cc1 [Compound 308, (S)-3-(4-((difluoromethyl)sulfonamido)-3-(1-(4-fluorophenyl)ethoxy)phenyl)-5-((6,7-dihydro-4H-pyrazolo[5,1-c][1,4]oxazin-2-yl)amino)-1H-pyrazole-4-carboxamide] | > 30 | > 30 | < 0.01
